Reference: ChEMBL document CHEMBL5465560, “Selectivity Literature for EUbOPEN Chemogenomic Library” (2024)
Values belong to the compound of their own block, whether it stands above or below them.

What was measured:
[1] = biological target: Phosphatidylinositol 4,5-bisphosphate 3-kinase catalytic subunit beta isoform (Homo sapiens) (UniProt P42338); assay: Selectivity interaction (KinomeScan (DiscoverX)) EUB0000092b PIK3CB; conditions: at 10 µM
[2] = biological target: Serine/threonine-protein kinase WNK3 (Homo sapiens) (UniProt Q9BYP7); assay: Selectivity interaction (ProQinase) EUB0000171b WNK3
Adenosine receptor A3 = Adenosine receptor A3 (Homo sapiens, UniProt P0DMS8); assay: Selectivity interaction (Adenosine 3 receptor binding assay, human recombinant ) EUB0000877a ADORA3
[3] = Selectivity interaction (PWWP, WD40, and Tudor domain panel (DSLS measurements, literature)) EUB0000270b WDR20
[4] = biological target: T1, Mitogen-activated protein kinase kinase kinase kinase 2 (Homo sapiens) (UniProt Q12851); assay: Selectivity interaction (ActivX KiNativ screen (kinase selectivity in THP-1 cell lysates)) EUB0000639a MAP4K2; format: subcellular; conditions: lysate
T1 sequence (whole entry): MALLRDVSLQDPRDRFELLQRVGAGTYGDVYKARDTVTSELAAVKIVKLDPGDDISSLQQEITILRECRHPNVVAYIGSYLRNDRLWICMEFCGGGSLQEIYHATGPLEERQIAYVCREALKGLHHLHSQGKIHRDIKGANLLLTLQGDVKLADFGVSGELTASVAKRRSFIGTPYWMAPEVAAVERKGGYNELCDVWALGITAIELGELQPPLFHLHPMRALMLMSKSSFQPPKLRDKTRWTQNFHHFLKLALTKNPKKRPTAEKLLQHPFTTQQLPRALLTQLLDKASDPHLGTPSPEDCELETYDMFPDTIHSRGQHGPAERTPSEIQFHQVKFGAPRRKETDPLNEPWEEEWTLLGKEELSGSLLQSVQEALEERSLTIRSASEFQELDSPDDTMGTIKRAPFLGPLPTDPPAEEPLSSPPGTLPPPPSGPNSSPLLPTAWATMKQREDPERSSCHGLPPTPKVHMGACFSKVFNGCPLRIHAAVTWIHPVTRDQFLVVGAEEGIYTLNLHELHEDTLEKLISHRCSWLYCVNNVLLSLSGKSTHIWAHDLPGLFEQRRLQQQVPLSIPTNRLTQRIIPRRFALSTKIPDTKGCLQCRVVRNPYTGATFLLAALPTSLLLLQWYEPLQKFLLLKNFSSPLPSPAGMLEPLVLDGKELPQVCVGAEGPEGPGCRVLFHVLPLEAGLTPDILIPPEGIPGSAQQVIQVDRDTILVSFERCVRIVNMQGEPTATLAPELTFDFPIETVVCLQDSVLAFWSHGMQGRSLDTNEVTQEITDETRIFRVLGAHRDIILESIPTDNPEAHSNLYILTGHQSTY

[5] = biological target: Receptor-type tyrosine-protein kinase FLT3 (Homo sapiens) (UniProt P36888); assay: (§1) Selectivity interaction (Ambit KINOMEscan and KiNATiv profiling in Jurkat cells) EUB0000090b FLT3; format: cell-based; conditions: at 1 µM
[6] = tested on: T2, Receptor-type tyrosine-protein kinase FLT3 (Homo sapiens), P36888 [D835H]; assay: as §1; format: cell-based; conditions: at 1 µM
T2 sequence (whole entry): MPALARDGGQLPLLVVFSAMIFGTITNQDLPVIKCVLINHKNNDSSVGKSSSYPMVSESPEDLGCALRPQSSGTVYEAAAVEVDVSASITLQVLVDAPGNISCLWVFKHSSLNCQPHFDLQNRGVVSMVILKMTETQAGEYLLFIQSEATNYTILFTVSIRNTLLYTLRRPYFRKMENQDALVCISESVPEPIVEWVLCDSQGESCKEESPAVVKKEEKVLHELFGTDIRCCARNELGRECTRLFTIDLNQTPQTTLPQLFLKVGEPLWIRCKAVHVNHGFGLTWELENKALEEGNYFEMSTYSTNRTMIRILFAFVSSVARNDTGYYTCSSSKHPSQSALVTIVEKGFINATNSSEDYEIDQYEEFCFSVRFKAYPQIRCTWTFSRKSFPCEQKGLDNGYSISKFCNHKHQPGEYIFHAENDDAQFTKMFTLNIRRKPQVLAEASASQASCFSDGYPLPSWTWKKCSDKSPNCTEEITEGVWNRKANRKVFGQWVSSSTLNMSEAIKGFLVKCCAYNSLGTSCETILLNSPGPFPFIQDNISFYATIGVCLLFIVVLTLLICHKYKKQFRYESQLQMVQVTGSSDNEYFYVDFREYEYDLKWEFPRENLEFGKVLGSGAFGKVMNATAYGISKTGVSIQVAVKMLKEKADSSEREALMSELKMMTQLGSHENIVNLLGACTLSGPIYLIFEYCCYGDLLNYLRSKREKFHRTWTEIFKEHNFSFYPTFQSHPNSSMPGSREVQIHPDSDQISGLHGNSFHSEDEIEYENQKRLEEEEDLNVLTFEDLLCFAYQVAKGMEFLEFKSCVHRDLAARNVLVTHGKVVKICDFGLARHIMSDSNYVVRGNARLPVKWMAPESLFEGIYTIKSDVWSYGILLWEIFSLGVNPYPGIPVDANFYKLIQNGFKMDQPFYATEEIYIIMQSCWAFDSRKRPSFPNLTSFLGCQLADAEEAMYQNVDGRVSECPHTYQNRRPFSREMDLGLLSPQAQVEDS

[7] = biological target: T3, Myosin light chain kinase family member 4 (Homo sapiens) (UniProt Q86YV6); assay: Selectivity interaction (KinomeScan (DiscoverX)) EUB0001619a MYLK4; conditions: at 1 µM
T3 sequence (whole entry): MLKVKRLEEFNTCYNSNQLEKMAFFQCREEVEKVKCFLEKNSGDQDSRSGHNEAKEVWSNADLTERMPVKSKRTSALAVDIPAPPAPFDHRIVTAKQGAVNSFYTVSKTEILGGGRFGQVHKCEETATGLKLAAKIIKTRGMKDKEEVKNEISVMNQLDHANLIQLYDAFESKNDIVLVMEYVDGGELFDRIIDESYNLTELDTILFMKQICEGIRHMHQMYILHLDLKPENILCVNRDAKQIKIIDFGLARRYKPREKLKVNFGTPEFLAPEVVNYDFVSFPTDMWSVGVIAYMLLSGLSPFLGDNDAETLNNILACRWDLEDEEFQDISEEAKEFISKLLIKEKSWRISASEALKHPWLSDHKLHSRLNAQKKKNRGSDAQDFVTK

Chain of Serine/threonine-protein kinase WNK3 (Homo sapiens) (Q9BYP7 whole entry): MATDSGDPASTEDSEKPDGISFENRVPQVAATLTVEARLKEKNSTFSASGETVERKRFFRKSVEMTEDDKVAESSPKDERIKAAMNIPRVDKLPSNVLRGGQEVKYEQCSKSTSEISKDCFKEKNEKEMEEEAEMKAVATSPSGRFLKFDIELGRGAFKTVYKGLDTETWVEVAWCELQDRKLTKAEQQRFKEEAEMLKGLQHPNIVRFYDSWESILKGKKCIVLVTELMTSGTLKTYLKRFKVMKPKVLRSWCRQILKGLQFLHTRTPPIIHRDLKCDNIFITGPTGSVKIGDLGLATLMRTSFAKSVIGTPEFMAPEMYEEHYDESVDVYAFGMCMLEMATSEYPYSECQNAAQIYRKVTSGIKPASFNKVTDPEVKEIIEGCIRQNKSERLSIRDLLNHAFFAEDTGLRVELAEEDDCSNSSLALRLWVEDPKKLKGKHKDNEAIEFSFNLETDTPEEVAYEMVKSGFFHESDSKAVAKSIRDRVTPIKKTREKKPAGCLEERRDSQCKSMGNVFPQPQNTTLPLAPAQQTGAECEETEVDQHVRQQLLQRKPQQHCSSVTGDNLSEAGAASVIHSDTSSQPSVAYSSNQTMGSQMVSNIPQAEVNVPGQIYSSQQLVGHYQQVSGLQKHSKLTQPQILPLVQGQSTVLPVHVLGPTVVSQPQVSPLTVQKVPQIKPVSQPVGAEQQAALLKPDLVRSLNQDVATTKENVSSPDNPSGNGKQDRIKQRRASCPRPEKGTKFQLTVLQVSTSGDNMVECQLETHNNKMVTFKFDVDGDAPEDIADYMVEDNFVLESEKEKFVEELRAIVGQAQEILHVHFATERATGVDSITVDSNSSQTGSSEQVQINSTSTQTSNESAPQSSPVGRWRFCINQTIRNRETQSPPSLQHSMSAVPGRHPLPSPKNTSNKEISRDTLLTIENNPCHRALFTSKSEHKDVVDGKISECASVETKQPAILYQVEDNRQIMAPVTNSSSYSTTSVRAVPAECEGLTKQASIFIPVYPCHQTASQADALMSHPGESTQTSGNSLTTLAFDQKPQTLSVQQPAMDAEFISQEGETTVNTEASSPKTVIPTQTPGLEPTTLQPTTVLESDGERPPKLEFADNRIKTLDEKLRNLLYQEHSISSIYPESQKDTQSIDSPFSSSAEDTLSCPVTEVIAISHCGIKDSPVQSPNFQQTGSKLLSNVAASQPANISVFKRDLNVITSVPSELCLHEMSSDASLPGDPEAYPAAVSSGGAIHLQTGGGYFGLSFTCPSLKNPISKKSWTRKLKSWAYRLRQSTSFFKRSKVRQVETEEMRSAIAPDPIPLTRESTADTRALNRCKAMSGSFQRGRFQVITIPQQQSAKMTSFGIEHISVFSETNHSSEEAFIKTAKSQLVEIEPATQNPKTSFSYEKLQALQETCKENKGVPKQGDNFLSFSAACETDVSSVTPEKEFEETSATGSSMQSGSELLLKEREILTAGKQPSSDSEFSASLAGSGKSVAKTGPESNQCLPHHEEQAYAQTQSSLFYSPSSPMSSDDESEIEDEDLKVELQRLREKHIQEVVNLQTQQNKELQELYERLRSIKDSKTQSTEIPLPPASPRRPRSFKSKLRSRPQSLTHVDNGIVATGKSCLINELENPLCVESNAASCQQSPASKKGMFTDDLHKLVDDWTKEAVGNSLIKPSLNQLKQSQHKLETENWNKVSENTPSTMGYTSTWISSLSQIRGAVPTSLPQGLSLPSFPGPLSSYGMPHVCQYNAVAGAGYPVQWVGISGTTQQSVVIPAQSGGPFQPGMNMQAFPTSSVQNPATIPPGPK
Chain of Phosphatidylinositol 4,5-bisphosphate 3-kinase catalytic subunit beta isoform (Homo sapiens) (P42338 whole entry, looked up, canonical isoform): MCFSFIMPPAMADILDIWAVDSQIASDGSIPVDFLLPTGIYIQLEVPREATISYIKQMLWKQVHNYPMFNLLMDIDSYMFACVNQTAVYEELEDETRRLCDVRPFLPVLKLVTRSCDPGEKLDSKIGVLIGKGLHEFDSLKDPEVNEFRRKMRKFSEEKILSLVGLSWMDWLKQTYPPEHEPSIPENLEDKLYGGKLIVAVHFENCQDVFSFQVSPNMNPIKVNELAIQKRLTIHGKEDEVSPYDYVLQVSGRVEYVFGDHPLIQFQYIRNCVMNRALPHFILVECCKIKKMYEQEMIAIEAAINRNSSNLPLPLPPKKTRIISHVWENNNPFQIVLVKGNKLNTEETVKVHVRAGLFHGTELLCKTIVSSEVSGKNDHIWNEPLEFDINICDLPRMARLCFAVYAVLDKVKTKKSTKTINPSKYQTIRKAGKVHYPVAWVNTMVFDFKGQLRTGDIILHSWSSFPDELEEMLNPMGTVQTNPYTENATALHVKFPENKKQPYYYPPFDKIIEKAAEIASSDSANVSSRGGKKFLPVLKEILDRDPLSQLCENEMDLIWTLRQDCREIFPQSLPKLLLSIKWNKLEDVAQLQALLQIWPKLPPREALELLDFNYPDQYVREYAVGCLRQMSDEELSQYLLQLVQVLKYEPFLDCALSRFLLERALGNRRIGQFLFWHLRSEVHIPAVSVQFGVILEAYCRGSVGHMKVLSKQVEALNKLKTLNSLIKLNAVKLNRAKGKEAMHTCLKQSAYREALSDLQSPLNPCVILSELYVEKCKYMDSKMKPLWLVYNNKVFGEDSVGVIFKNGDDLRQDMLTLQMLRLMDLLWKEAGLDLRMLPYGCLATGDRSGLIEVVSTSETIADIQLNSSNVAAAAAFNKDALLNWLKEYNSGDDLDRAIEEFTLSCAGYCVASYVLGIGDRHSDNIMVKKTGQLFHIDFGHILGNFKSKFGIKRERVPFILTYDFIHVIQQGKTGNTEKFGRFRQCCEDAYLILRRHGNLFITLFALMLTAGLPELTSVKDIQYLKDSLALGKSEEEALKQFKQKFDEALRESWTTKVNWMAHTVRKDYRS
Chain of Adenosine receptor A3 (P0DMS8 whole entry, the tested form may be a part): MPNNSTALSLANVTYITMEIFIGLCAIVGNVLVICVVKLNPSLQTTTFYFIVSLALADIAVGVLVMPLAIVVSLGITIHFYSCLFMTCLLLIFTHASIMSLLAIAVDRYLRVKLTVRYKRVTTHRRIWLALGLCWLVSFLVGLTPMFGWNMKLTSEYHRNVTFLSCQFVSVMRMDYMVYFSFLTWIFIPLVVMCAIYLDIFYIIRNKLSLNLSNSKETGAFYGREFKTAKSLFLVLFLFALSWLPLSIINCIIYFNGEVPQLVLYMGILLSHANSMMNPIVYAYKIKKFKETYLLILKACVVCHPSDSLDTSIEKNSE

SMILES: CCC(=O)N1CCN(c2ccc(-n3c(=O)ccc4cnc5ccc(-c6cnc7ccccc7c6)cc5c43)cc2C(F)(F)F)CC1
- % of control [1]: 65%

SMILES: CC[C@@H]1[C@H](F)C(=O)N[C@@H]1COc1nccc2cc(C(N)=O)c(OC)cc12 [ZIMLOVISERTIB]
- % of inhibition ([4]; at 0.01 µM): -10%
- % of inhibition ([4]; at 0.04 µM): -5.8%
- % of inhibition ([4]; at 0.2 µM): -8.2%
- % of inhibition ([4]; at 1 µM): -2.9%
- % of inhibition ([4]; at 5 µM): -12.1%

SMILES: CN(C)C/C=C/C(=O)Nc1ccc(C(=O)N2CCCC(Nc3ncc(Cl)c(-c4c[nH]c5ccccc45)n3)C2)cc1 (stereo not drawn)
- % of control [5]: 94%
- % of control [6]: 64%

SMILES: N#Cc1cccc(-c2c[nH]c3ncnc(N4CCOCC4)c23)c1
- % of control [7]: 100%

Further lines, results first:

- % of control ([2]; at 1 µM): 79%
- % of control ([2]; at 5 µM): 67%
SMILES: C=CC(=O)Nc1cccc(C(=O)Nc2ccc(Nc3cc(-c4[nH]c(SC)nc4C)ccn3)cc2)c1

- IC50 (Adenosine receptor A3): > 30 µM
SMILES: CCC(=O)N1CC[C@H](Nc2ncnc3c2CN(c2cnc(OC)c(C(F)(F)F)c2)CC3)C1 [LENIOLISIB]

- dTagg [3]: 0 K
SMILES: Cc1cc(CN)cc(C)c1-c1ncn(C)c1-c1cncn1C
